Measured values: PubChem BioAssay AID328 (DTP/NCI, 2004)
Where “and” joins values, the source holds several entries; their conditions need not be identical. Identical values can stand only once. Toxic doses and inconclusive results are not listed. How the source made its calls: active means survival T/C of 150% or more; inactive means T/C below 125% in these data.

System: BDF1 mice, P388 leukemia ip, median survival T/C
Test: NCI In Vivo Anticancer Drug Screen. Data for tumor model P388 Leukemia (intraperitoneal) in B6D2F1 (BDF1) mice
Settings: endpoint: median survival time, higher = longer survival
Outline: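 T/C = treated-group survival ÷ vehicle-control survival; tumour transplanted into mice before dosing.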

[1] = dose: 100.0 mg/kg/injection, schedule: Q01DX009 (ip), vehicle: saline with Tween-80
[2] = dose: 100.0 mg/kg/injection, schedule: Q04DX003 (ip), vehicle: saline with Tween-80
[3] = dose: 200.0 mg/kg/injection, schedule: Q01DX009 (ip), vehicle: saline with Tween-80
[4] = dose: 200.0 mg/kg/injection, schedule: Q04DX003 (ip), vehicle: saline with Tween-80
[5] = dose: 400.0 mg/kg/injection, schedule: Q01DX009 (ip), vehicle: saline with Tween-80
[6] = dose: 25.0 mg/kg/injection, schedule: Q01DX009 (ip), vehicle: saline with Tween-80
[7] = dose: 50.0 mg/kg/injection, schedule: Q01DX009 (ip), vehicle: saline with Tween-80
[8] = dose: 100.0 mg/kg/injection, schedule: Q04DX003 (ip), vehicle: saline
[9] = dose: 100.0 mg/kg/injection, schedule: Q04DX003 (ip), vehicle: saline sonified
[10] = dose: 200.0 mg/kg/injection, schedule: Q04DX003 (ip), vehicle: saline sonified
[11] = dose: 400.0 mg/kg/injection, schedule: Q04DX003 (ip), vehicle: saline sonified

Measured: T/C

COc1c2c([n+](C)c3c(OC)cccc13)OC(C(C)C)C2 (stereo not drawn)
inactive: dose: 0.03 mg/kg/injection, schedule: Q01DX009 (ip), vehicle: saline 109 % of control | dose: 0.06 mg/kg/injection, schedule: Q01DX009 (ip), vehicle: saline 104 % of control | dose: 0.12 mg/kg/injection, schedule: Q01DX009 (ip), vehicle: saline 109 % of control | dose: 0.18 mg/kg/injection, schedule: Q04DX003 (ip), vehicle: saline 100 % of control | dose: 0.25 mg/kg/injection, schedule: Q01DX009 (ip), vehicle: Klucel (hydroxypropylcellulose) (HPC) 104 % of control | dose: 0.25 mg/kg/injection, schedule: Q01DX009 (ip), vehicle: saline 104 % of control and 120 % of control | dose: 0.37 mg/kg/injection, schedule: Q04DX003 (ip), vehicle: saline 118 % of control | dose: 0.5 mg/kg/injection, schedule: Q01DX009 (ip), vehicle: Klucel (hydroxypropylcellulose) (HPC) 104 % of control | dose: 0.5 mg/kg/injection, schedule: Q01DX009 (ip), vehicle: saline 112 % of control | dose: 0.75 mg/kg/injection, schedule: Q04DX003 (ip), vehicle: saline 104 % of control | dose: 1.0 mg/kg/injection, schedule: Q01DX009 (ip), vehicle: Klucel (hydroxypropylcellulose) (HPC) 118 % of control | dose: 1.1 mg/kg/injection, schedule: Q04DX003 (ip), vehicle: saline 90 % of control | dose: 1.7 mg/kg/injection, schedule: Q04DX003 (ip), vehicle: saline 100 % of control | dose: 2.5 mg/kg/injection, schedule: Q04DX003 (ip), vehicle: saline 90 % of control | dose: 3.6 mg/kg/injection, schedule: Q04DX003 (ip), vehicle: saline 86 % of control

COc1ccc(C2(C(=O)O)CCCC2)cc1
inactive: [1] 95 % of control | [2] 104 % of control | [3] 91 % of control | [4] 100 % of control | [5] 91 % of control | dose: 400.0 mg/kg/injection, schedule: Q04DX003 (ip), vehicle: saline with Tween-80 112 % of control

CC(C)(O)c1ccccc1[S+]1OC(C)(C)c2ccccc21 (stereo not drawn)
inactive: dose: 100.0 mg/kg/injection, schedule: Q01DX001 (ip), vehicle: saline with Tween-80 98 % of control | dose: 100.0 mg/kg/injection, schedule: Q01DX001 (ip), vehicle: saline 100 % of control | dose: 200.0 mg/kg/injection, schedule: Q01DX001 (ip), vehicle: saline with Tween-80 103 % of control | dose: 200.0 mg/kg/injection, schedule: Q01DX001 (ip), vehicle: saline 102 % of control | dose: 400.0 mg/kg/injection, schedule: Q01DX001 (ip), vehicle: saline with Tween-80 118 % of control | dose: 400.0 mg/kg/injection, schedule: Q01DX001 (ip), vehicle: saline 117 % of control

CCC(c1ccc(OC(=O)Cc2ccc(N(CCCl)CCCl)cc2)cc1)C(CC)c1ccc(OC(=O)Cc2ccc(N(CCCl)CCCl)cc2)cc1 (stereo not drawn)
inactive: [6] 96 % of control | [7] 104 % of control | dose: 64.0 mg/kg/injection, schedule: Q01DX009 (ip), vehicle: saline with Tween-80 92 % of control and 100 % of control | [1] 104 % of control | dose: 128.0 mg/kg/injection, schedule: Q01DX009 (ip), vehicle: saline with Tween-80 92 % of control and 98 % of control | [3] 98 % of control | dose: 256.0 mg/kg/injection, schedule: Q01DX009 (ip), vehicle: saline with Tween-80 93 % of control and 99 % of control | [5] 107 % of control | dose: 512.0 mg/kg/injection, schedule: Q01DX009 (ip), vehicle: saline with Tween-80 98 % of control and 104 % of control

CCCCCCC/C=N/N=C/CCCCCCC
inactive: dose: 100.0 mg/kg/injection, schedule: Q01DX009 (ip), vehicle: other 100 % of control | dose: 100.0 mg/kg/injection, schedule: Q04DX003 (ip), vehicle: other 109 % of control | dose: 178.0 mg/kg/injection, schedule: Q01DX009 (ip), vehicle: other 122 % of control | dose: 200.0 mg/kg/injection, schedule: Q04DX003 (ip), vehicle: other 109 % of control | dose: 400.0 mg/kg/injection, schedule: Q01DX009 (ip), vehicle: other 104 % of control

c1ccc(C2CCCCCC2)cc1
inactive: dose: 100.0 mg/kg/injection, schedule: Q01DX009 (ip), vehicle: saline 110 % of control | [8] 100 % of control | dose: 166.0 mg/kg/injection, schedule: Q01DX009 (ip), vehicle: saline 110 % of control | dose: 200.0 mg/kg/injection, schedule: Q01DX009 (ip), vehicle: saline 105 % of control | dose: 200.0 mg/kg/injection, schedule: Q04DX003 (ip), vehicle: saline 90 % of control | dose: 400.0 mg/kg/injection, schedule: Q04DX003 (ip), vehicle: saline 100 % of control

Cc1cc(C)c2cc3cccc[n+]3cc2c1
inactive: dose: 4.0 mg/kg/injection, schedule: Q01DX010 (ip), vehicle: carboxymethylcellulose (CMC) 115 % of control

Brc1ncnc2nc[nH]c12
inactive: dose: 100.0 mg/kg/injection, schedule: Q01DX009 (ip), vehicle: saline sonified 105 % of control | [9] 100 % of control | dose: 200.0 mg/kg/injection, schedule: Q01DX009 (ip), vehicle: saline sonified 111 % of control | [10] 105 % of control | dose: 400.0 mg/kg/injection, schedule: Q01DX009 (ip), vehicle: saline sonified 116 % of control | [11] 100 % of control

Clc1c(CI)ccc(CI)c1Cl
inactive: dose: 11.0 mg/kg/injection, schedule: Q04DX003 (ip), vehicle: Klucel (hydroxypropylcellulose) (HPC) 100 % of control | dose: 12.5 mg/kg/injection, schedule: Q01DX009 (ip), vehicle: saline sonified 113 % of control | dose: 16.5 mg/kg/injection, schedule: Q01DX009 (ip), vehicle: saline with Tween-80 90 % of control | dose: 16.5 mg/kg/injection, schedule: Q04DX003 (ip), vehicle: Klucel (hydroxypropylcellulose) (HPC) 100 % of control | dose: 16.5 mg/kg/injection, schedule: Q04DX003 (ip), vehicle: saline sonified 122 % of control | [6] 90 % of control | dose: 25.0 mg/kg/injection, schedule: Q04DX003 (ip), vehicle: Klucel (hydroxypropylcellulose) (HPC) 109 % of control | dose: 37.5 mg/kg/injection, schedule: Q04DX003 (ip), vehicle: Klucel (hydroxypropylcellulose) (HPC) 109 % of control | dose: 50.0 mg/kg/injection, schedule: Q01DX009 (ip), vehicle: saline sonified 118 % of control | dose: 50.0 mg/kg/injection, schedule: Q04DX003 (ip), vehicle: Klucel (hydroxypropylcellulose) (HPC) 110 % of control | dose: 100.0 mg/kg/injection, schedule: Q04DX003 (ip), vehicle: Klucel (hydroxypropylcellulose) (HPC) 120 % of control

O=C1NCCS1
inactive: [9] 90 % of control | [10] 90 % of control | [11] 95 % of control

CSc1ncc2cnccn12
inactive: dose: 12.5 mg/kg/injection, schedule: Q01DX009 (ip), vehicle: water 105 % of control | dose: 25.0 mg/kg/injection, schedule: Q01DX009 (ip), vehicle: water 96 % of control | dose: 25.0 mg/kg/injection, schedule: Q04DX003 (ip), vehicle: water 100 % of control | dose: 50.0 mg/kg/injection, schedule: Q01DX009 (ip), vehicle: water 100 % of control | dose: 50.0 mg/kg/injection, schedule: Q04DX003 (ip), vehicle: water 104 % of control | dose: 100.0 mg/kg/injection, schedule: Q04DX003 (ip), vehicle: water 95 % of control

CC(=O)OCC(=O)[C@@]1(O)CC[C@H]2[C@@H]3CCC4=CC(=O)C=C[C@]4(C)[C@H]3[C@@H](O)C[C@@]21C
inactive: dose: 25.0 mg/kg/injection, schedule: Q01DX009 (ip), vehicle: saline 91 % of control | dose: 50.0 mg/kg/injection, schedule: Q01DX009 (ip), vehicle: saline 91 % of control | [8] 109 % of control

CCOC(=O)c1c(NC(C)=O)sc2c1CCCC2
inactive: [7] 104 % of control | dose: 50.0 mg/kg/injection, schedule: Q04DX003 (ip), vehicle: saline with Tween-80 90 % of control | [1] 100 % of control | [2] 104 % of control | [3] 100 % of control | [4] 100 % of control
